This note sets out measurements from US20240315244A1, “ANTIVIRAL COATING AGENT, ANTIVIRAL AGENT, LAMINATED BODY, AND PACKAGE OR CONTAINER” (National Institute for Materials Science, priority 2021, published 2024).

The nature of this data set: solubility in organic solvents. It is filed as physicochemical.

Consider `O=C(OCC1OC(OC(=O)c2cc(O)c(O)c(OC(=O)c3cc(O)c(O)c(O)c3)c2)C(OC(=O)c2cc(O)c(O)c(OC(=O)c3cc(O)c(O)c(O)c3)c2)C(OC(=O)c2cc(O)c(O)c(OC(=O)c3cc(O)c(O)c(O)c3)c2)C1OC(=O)c1cc(O)c(O)c(OC(=O)c2cc(O)c(O)c(O)c2)c1)c1cc(O)c(O)c(OC(=O)c2cc(O)c(O)c(O)c2)c1` (centres unmarked) [tannic acid, Tannic acid], for which the “solubility in low-polarity solvents” value (low-polarity solvents, such as ethyl acetate) is “insoluble”. Also, the “solubility in polar solvents” value (polar solvents, such as NPM or MEK) is given as “soluble”.
